The nature of data set [1]: General toxicity (mortality, body weight). Format: in vivo, nude mice. The conditions noted are these: for Final BW: mean±s.e. As for the experimental part: Experiment 1 was started when tumours had grown to approximately 40 mm^3 in volume. Animals were randomly divided into three treatment groups: group 1(10 mice), control, which received vehicle solution; group 2 (10 mice), injected with cytotoxic radical AN-201; group 3 (11 mice), given cytotoxic BN analogue AN-215. Cytotoxic compounds were injected through the jugular vein at a dose of 150 nmol kg^−1 of body weight (BW) on days 1, 8, 15 and 22. Tumour volume (length×width×height×0.5236) and BW were measured twice a week. The experiment was terminated on day 29. […] Tumours were excised and weighed. Tumour specimens were snap-frozen and stored at −70°C until extraction of RNA for reverse transcription-polymerase chain reaction (RT–PCR). Tumour volume doubling time was calculated between day 1 and 29 using the formula: […]
Experiment 2 was started when U-87MG tumours had grown to 70–84 mm^3 in volume. The animals were divided into the following treatment groups: group 1 (10 mice), control, vehicle solution; group 2 (10 mice), analogue AN-215; group 3 (five mice), unconjugated mixture of the cytotoxic radical AN-201 and BN antagonist RC-3095. All compounds were injected i.v. at 150 nmol kg^−1 of BW on days 1, 10, and 17. In addition, one group of tumour-bearing mice received an i.v. injection of 200 μg of BN antagonist RC-3095 15 min before each administration of AN-215 at a dose of 150 nmol kg^−1 of BW on days 1, 10 and 17 as in the case of group 2. The experiment was terminated on day 20 as described above.
General toxicity was evaluated on the basis of mortality rate and changes in BW. Toxicity to BN receptor-positive organs was assessed by measuring gastrin release in response to GRP stimulation ([Plonowski et al, 2000]). At the end of experiment 1, blood samples were collected 5 min after i.v. injection of 2 μg of GRP(14-27) dissolved in 100 μl of 5% mannitol. Serum gastrin concentrations were measured by double-antibody radioimmunoassay with a kit provided by ICN Pharmaceuticals Diagnostic Division (Orangeburg, NY, USA). The interassay variation was 10.6%, and the intraassay variation was 6%.

Data set [2] relates to U-87MG human glioblastomas in nude mice. The data set is described as follows: Histology of U-87MG tumours (experiment 1). Format: in vivo, human tumour in nude mice. The conditions noted are these: for Extent of necrosis vs control / % area of necrosis / Ratio of apoptotic to mitotic indices / Apoptotic index / Mitotic index: experiment 1 tumours; for % area of necrosis: 150 nmol kg^-1 i.v. x4, control 60.0±5.8; for % area of necrosis / Ratio of apoptotic to mitotic indices / Apoptotic index / Mitotic index / Number of AgNORs per cell: mean±s.e.; for Ratio of apoptotic to mitotic indices: control 0.38±0.06; for Apoptotic index / Mitotic index: per 1000 cells; for Apoptotic index: control 5.9±0.7; for Mitotic index: control 16.6±1.4; for Number of AgNORs per cell: silver staining, 50 cells per tumour, control 4.93±0.18. An excerpt: Samples of tumour tissues were fixed in 10% buffered formalin. The specimens were embedded in Paraplast (Oxford Labware, St. Louis, MO, USA). Six μm thick sections were cut and stained with haematoxylin-eosin. Mitotic and apoptotic cells were counted in nine standard high power microscopic fields containing an average of 330 cells, and their numbers per 1000 cells were accepted as the mitotic and apoptotic indices, respectively. To eliminate errors caused by variances in thickness of slides and cellularity of areas investigated, the ratio of apoptotic to mitotic indices was calculated in each tumour. For the determination of the extent of necrosis in tumours, the crossing points of a microscope ocular net that coincided with necrosis in the slide made at the largest cross-section of each tumour were counted. The ratio of these points to the number of all points above the tumour represented the percentage area of necrosis. […] NORs are parts of DNA closely associated with nucleoli and encode for ribosomal RNA. They are also associated with argyrophylic proteins and thus can be visualised by silver staining. The amount of AgNORs is a good indicator of cell proliferation ([van Diest et al, 1998]). The silver-stained black dots in 50 cells of each tumour were counted and the AgNOR number per cell was calculated. The data were evaluated by one way analysis of variance (ANOVA) and the treated groups compared to the control by Dunnett's test.

A further data set deals with hGRPR/BRS-1. The data set is described as follows: RT-PCR of hGRPR/BRS-1 mRNA in U-87MG tumours. It counts as in vivo, human. The conditions noted are these: experiment 1 tumours; normalised vs hGAPDH; control 15.1±1.5; change not significant. On the procedure: (§1) Total RNA was extracted from frozen tissue samples by using RNAzolB (Tel-Test, Friendswood, TX, USA) according to the manufacturer's instructions. Concentrations of total RNA were calculated by measuring the OD260 value. Total RNA (4 μg) was subjected to electrophoresis for 2 h at 70 V in 10 μl of sample buffer containing 1× MOPS buffer (pH 6.5), 6.4% formaldehyde, 48% deionized formamide, 0.25% w v^−1 bromophenol blue, 0.05% glycerol and 0.25 mg ml^−1 ethidium bromide. The RNA gel contained 1.4% agarose, 1×MOPS (pH 6.5) and 1.73% formaldehyde.
(§2) The RT–PCR was performed using Gene Amp RNA Core Kit (Perkin-Elmer, Foster City, CA, USA). To avoid genomic DNA contamination, all samples were subjected to DNase digestion before RT–PCR. RNA (2 μg) was treated with 0.3 unit of RQ1 RNase-free DNase (Promega, Madison, WI, USA) at 37°C for 30 min in 19 μl of mixture containing 5 mM MgCl2, 1× PCR buffer, 1 mM of each dNTP, 1 unit RNase inhibitor and 2.5 μM random hexamers. The reaction was terminated by enzyme denaturation at 99°C for 5 min. […]
(§3) The PCR amplification of the cDNAs for human glyceraldehyde-3-phosphate dehydrogenase (hGAPDH), GRP receptor (hGRPR, BRS-1) and neuromedin-B receptor (hNMBR, BRS-2) was performed as follows. […] The number of cycles was determined in preliminary experiments to be within the exponential range of PCR amplification.

The subject of a further data set is hNMBR/BRS-2. The data set is described as follows: RT-PCR of hNMBR/BRS-2 mRNA in U-87MG tumours. It counts as in vivo, human. Conditions: experiment 1 tumours; normalised vs hGAPDH; control 7.6±3.5. As for the experimental part:
as §1, §2, §3

[3] abbreviates: experiment 1, 150 nmol kg^-1 i.v. days 1, 8, 15, 22.
The mark [4] stands for this setting: experiment 1, 150 nmol kg^-1 i.v. days 1, 8, 15, 22, control 0/10.
[5] abbreviates: experiment 1, day 29, control 29.3±1.0.

Take “Gln-Trp-Ala-Val-Gly-His-Leu-ψ(CH2-NH)-Leu-NH2 [AN-215]”: the “Toxicity by BW and mortality” value in data set [1] (both experiments, 150 nmol kg^-1 i.v.) is on record as “not toxic”. Also, the “Mortality, % of animals” value in data set [1] (setting [3]) is recorded as 9%. For the same molecule, the “Mortality (number of dead animals/number of total)” value in data set [1] (setting [4]) is 1/11. The “Final BW, % of control” value in data set [1] (experiment 1, day 29) is given as 87%. Moreover, the “Final BW” value in data set [1] (setting [5]) was determined as 25.4 ± 0.6 g. Moreover, the “Mortality (number of dead animals/number of total)” value in data set [1] (experiment 2, 150 nmol kg^-1 i.v. days 1, 10, 17, control 1/10) is listed as 0/10. Further, in data set [1] (experiment 2, AN-215 150 nmol kg^-1 without pretreatment), the “Toxicity-related deaths” value is listed as “no toxicity-related deaths”. Moreover, the “Mortality, % of animals, after RC-3095 pretreatment” value in data set [1] (experiment 2, RC-3095 200 μg i.v. about 15 min before AN-215) turned out to be 11%. Besides, in data set [1] (experiment 2, day 20), the “Final BW, % of control” value came to 90%. Further, the “Final BW” value in data set [1] (experiment 2, day 20, control 30.2±0.8) worked out at 27.3 ± 0.9 g. For the same molecule, in data set [2], the “Extent of necrosis vs control” value is “significantly larger than in the controls”, the “% area of necrosis” value amounted to 81.7±6.7 %, the “Ratio of apoptotic to mitotic indices” value worked out at 0.85±0.25 and the Apoptotic index was found to be 6.2±0.8. In addition, in data set [2], the Mitotic index is 10.9±2.2 and the “Number of AgNORs per cell” value came out at 4.16±0.12. In addition, the “hGRPR/BRS-1 mRNA expression” value in the data set on hGRPR/BRS-1 was determined as 25.4±5.1 a.u. In addition, the “hNMBR/BRS-2 mRNA expression” value in the data set with hNMBR/BRS-2 is recorded as 3.3±1.0 a.u.
For `COc1cccc2c1C(=O)c1c(O)c3c(c(O)c1C2=O)C[C@@](O)(C(=O)CO)C[C@@H]3O[C@H]1C[C@H](N2C=CCC2)[C@H](O)[C@H](C)O1` [AN-201, 2-pyrrolino-doxorubicin], in data set [1] (setting [3]), the “Mortality, % of animals” value is listed as 20%. The “Mortality (number of dead animals/number of total)” value in data set [1] (setting [4]) is 2/10. For the same molecule, the “Final BW” value in data set [1] (setting [5]) is 25.5 ± 0.8 g. Besides, in data set [2], the “Extent of necrosis vs control” value is “only a slight and not significant change in necrosis”; the “% area of necrosis” value was found to be 69.6±7.0%; the “Ratio of apoptotic to mitotic indices” value is given as 0.36±0.04; the Apoptotic index came to 5.3±0.6. In data set [2], the Mitotic index came to 15.2±1.5 and the “Number of AgNORs per cell” value came out at 4.31±0.09. In the data set on hGRPR/BRS-1, the “hGRPR/BRS-1 mRNA expression” value worked out at 21.6±3.4 a.u. The “hNMBR/BRS-2 mRNA expression” value in the data set on hNMBR/BRS-2 was 10.9±3.6 a.u.

Source of the values: paper PMC2375353, “Effective treatment of experimental U-87MG human glioblastoma in nude mice with a targeted cytotoxic bombesin analogue, AN-215” (British Journal of Cancer, 2002).
